What was measured:
[1] = system: MCF-7 human mammary cells; experiment: Effect on the proliferation of mammary cells; format: cell-based; design: key: Mixed: slight agonist activity at very low concentrations and an inhibitory activity at higher concentrations; conditions: 7 days culture, steroid-free medium, DNA determination; oestradiol at 10^−10M = 100% agonist activity
Excerpt: PHARMACOLOGICAL TESTS Effect on the proliferation of mammary cells The proliferative activity of the molecules is studied in comparison to that of oestradiol on MCF-7 human mammary cells in culture. In order to reveal an agonist effect of the oestradiol and/or the tested molecules, the cell maintenance culture (rich in growth factors and steroids) is replaced by an impoverished medium, amongst others free of steroids (DMEM supplemented with 5% of steroid-free serum and without phenol red). Cells undergo this severance two days before the start of the test. After 7 days culture in the presence of the products to be studied, the cell proliferation is evaluated by determination of the DNA. In each test, the effect of the oestradiol at 10^−10M (cell growth in the presence of oestradiol less cell growth in the presence of the solvent) determines the 100% agonist activity. The activity of the molecules is evaluated in comparison to this internal control.

[2] = system: ovariectomized female rat; experiment: Bone impact study in the ovariectomized female rat at the age of 3 months (tibia BMD, uterus weight, seric cholesterol); format: in vivo; conditions: OVX rat, 4 weeks; for TIBIA BONE BMD %: (product BMD - OVX BMD)x100/(SHAM BMD - OVX BMD); for UTERUS Weight %: increase in % of uterus weight of OVX animals receiving only solvent; for Cholesterol %: seric cholesterol, % relative to OVX animals receiving only solvent
Description: Bone impact study of a product in the ovariectomized female rat at the age of 3 months Compounds A, B, C, D, E are tested in order to determine their effect on the bone mass and on the formation and resorption activity in the model of the ovariectomized rat at the age of 3 months. […] The study is carried out with female rats ovariectomized at the age of 3 months. The animals are kept in an air conditioned room (temperature 20° C.±2° C.) and grouped by 4 into boxes. The animals receive, ad libitum, demineralized water and compressed foods (pellets: AO4CR-10 UAR). The 3 month old female rats weighing approximately 250 g are ovariectomized under anaesthesia with Imalgene 1000, at a dose of 100 mg/kg by intraperitoneal route (i.p.) and under a volume of 1 ml/kg. They also receive Nembutal (3 mg/kg i.p. under a volume of 0.3 ml/kg). After lateral incision, cutaneous and muscular planes are sectioned. The exeresis of each ovary is carried out after ligature of the oviduct. The “SHAM” control rats are anaesthetised under the same conditions. After incision of the cutaneous and muscular planes, each ovary is exposed then replaced in situ. The effects of the products are determined in a preventive treatment. They are administered immediately after the ovariectomy. Animals distributed into groups of 8. Group 1: “SHAM” control rats receiving the vehicle or vehicles Group 2: “OVX” control rats receiving the vehicle or vehicles. Groups X: “OVX” rats receiving respectively defined doses of the product or products to be tested. At the end of 4 weeks (duration of the study) the animals are decapitated by guillotine. The serums collected after centrifugation are preserved at −20° C. A lipidic balance will be established from the serous determinations of total cholesterol, of triglycerides and of phospholipids on a 500 μl aliquot of serum. The lowering of the seric cholesterol level is expressed in % relative to the level shown by the ovariectomized animals receiving only the solvent. The uteri are removed. The latter are weighed. The increase in weight is expressed in % of the weight of the uterus of ovariectomized animals receiving only the solvent. The bone mass (BMD or Bone mineral density) is measured by biphotonic dual energy X-ray absorptiometry (DEXA). The measurements are carried out on bone excized and cleaned of all soft tissue. The BMD (Bone mineral density) is measured on the whole bone as well as on the metaphyseal part at the level of the proximal extremity for the left tibia. This zone is defined as being the region which is richest in trabecular bone; and consequently, is the most sensitive to variations in bone volume and bone mineral density. The results are expressed in % according to the formula: Tested product BMD - OVX BMD ×100/SHAM BMD - OVX BMD

Row | Compound | ACTIVITY (proliferative activity on MCF-7 cells) [1] | TIBIA BONE BMD % ([2]; 0.3 mg/kg po) | UTERUS Weight % ([2]; 0.3 mg/kg po) | Cholesterol % ([2]; 0.3 mg/kg po) | TIBIA BONE BMD % ([2]; 1.0 mg/kg po) | UTERUS Weight % ([2]; 1.0 mg/kg po) | Cholesterol % ([2]; 1.0 mg/kg po) | TIBIA BONE BMD % ([2]; 0.1 mg/kg s.c.) | UTERUS Weight % ([2]; 0.1 mg/kg s.c.) | Cholesterol % ([2]; 0.1 mg/kg s.c.)
1 | C[C@]12C[C@H](c3ccc(OCCN4CCCCC4)cc3)[C@@H]3c4ccc(O)c(Cl)c4CC[C@H]3[C@@H]1CCC2=O [Example 1, 4-chloro-3-hydroxy-11beta-[4-[2-(1-piperidinyl)ethoxy]phenyl]-estra-1,3,5 (10)-trien-17-one] | Mixed | 57% | 55% | −50% | 64% | 55% | −48% | – | – | –
2 | CCN(CC)CCOc1ccc([C@H]2C[C@]3(C)[C@@H](O)CC[C@H]3[C@@H]3CCc4c(ccc(O)c4Cl)[C@H]32)cc1 [Example 20, 4-chloro-11beta-[4-[2-(diethylamino)ethoxy]phenyl]-estra-1,3,5 (10)-triene-3,17beta-diol] | Mixed* | 69% | 60% | −43% | 74% | 50% | −40% | – | – | –
3 | C[C@]12C[C@H](c3ccc(OCCN4CCCCC4)cc3)[C@@H]3c4ccc(O)c(Cl)c4CC[C@H]3[C@@H]1CC[C@@H]2O [Example 22, 4-chloro-11β-[4-[2-(1-piperidinyl)ethoxy]phenyl]-estra-1,3,5(10)-triene-3,17beta-diol] | Inactive | 63% | 57% | −52% | – | – | – | – | – | –
4 | C[C@]12C[C@H](c3ccc(OCCN4CCCC4)cc3)[C@@H]3c4ccc(O)c(Cl)c4CC[C@H]3[C@@H]1CC[C@@H]2O [Example 23, 4-chloro-11β-[4-[2-(1-pyrrolidinyl)ethoxy]phenyl]-estra-1,3,5(10)-triene-3,17beta-diol] | Mixed | 67% | 64% | −53% | 71% | 74% | −53% | – | – | –
5 | CC1(O)CCC2C3CCc4c(ccc(O)c4Cl)C3C(c3ccc(OCCN4CCCCC4)cc3)CC21C (stereo not drawn) [Example 30, 4-chloro-17alpha-methyl-11β-[4-[2-(1-piperidinyl)ethoxy]phenyl]-estra-1,3,5(10)-triene-3,17beta-diol.] | Mixed | 52% | 68% | −51% | 71% | 55% | −48% | – | – | –
6 | C[C@]12CC[C@@H]3c4ccc(O)cc4CC[C@H]3[C@@H]1CC[C@@H]2O [Oestradiol, 17β oestradiol, reference compound] | Agonist | – | – | – | – | – | – | 105% | 359% | −35%
